Source: patent US9220758B2, “Calcitonin products and therapies for treating inflammatory or degenerative diseases” (UGP Therapeutics, Inc., priority 2010, dated 2015)

Legend:
Format in all cases: cell-based
[1] = system: bovine articular cartilage explants; assay: PGE2 release from cytokine-stimulated bovine cartilage explants (ELISA); conditions: for highest ineffective concentration, PGE2 release: TNFa/IL-1a/OSM 10 ng/ml each, 3 week culture; for normalized PGE2 release: stimulated control = 100%
Protocol: (§1) Full thickness cartilage was obtained from the metacarpophalangeal joints of approximately 6 months old calves (from a local slaughterhouse). Cartilage punches (4 mm) were taken from the cartilage and placed in culture dishes with culture medium (DMEM+FCS, penicillin, streptomycin and ascorbic acid). Cartilage explants were weighed and explants between about 5 and about 15 mg were divided into a 96-well culture plate with 1 explant per well and 200 μL culture medium. Cartilage degradation was induced by addition of TNFα, IL-1α, and OSM at 10 ng/mL each to the culture medium. Test agents were then added at different concentrations. During three weeks of culture, the culture medium and the test compounds were refreshed once weekly. In addition fresh calcitonin was added twice weekly to the cartilage explants. Culture medium and cartilage explants were stored at −20° C. until analysis. Each culture condition was cultured in four-fold and the entire experiment was performed on cartilage from three different paws. The different culture conditions are listed below in Table 1.
(§2) Outcome parameters included (i) CTX-II in the culture medium as a measure of collagen degradation, (ii) GAG in the culture medium and cartilage explant as a measure of proteoglycan degradation, (iii) prostaglandin E2 (PGE2) measured by ELISA in the culture medium as a measure of inflammation, and (iv) general MMP activity in the culture medium. Not all outcome parameters were determined for each of the culture conditions.
The prostaglandin E2 release was measured as PGE2 release per mg cartilage. PGE2 was determined in the pooled medium using a PGE2 ELISA from R&D Systems. This value was normalized against the control condition of each donor to correct for donor variation. The basal release of unstimulated cartilage is 11% (p<0.0 1) when the stimulated (IL-1a, TNFα and OSM) control is set to 100%.
as §1, with “the culture medium to induce cartilage degradation. Test agents” for “the culture medium. Test agents”, “in Table 3.” for “in Table 1.”

[2] = system: bovine articular cartilage explants; assay: Proteoglycan (GAG) release from cytokine-stimulated bovine cartilage explants (Blyscan assay); conditions: for highest ineffective concentration, Proteoglycan release: TNFa/IL-1a/OSM 10 ng/ml each, 3 week culture; for effect on proteoglycan release (in words): Example 1, concentrations of Table 1; for normalized GAG (proteoglycan) release: stimulated control = 100%
Protocol: as §1, §2
The proteoglycan release is measured as GAG release per mg cartilage. Proteoglycan (GAG) content was determined in the pooled medium and explants using the Blyscan® colorimetric assay (Biocolor, Belfast, UK). This value is normalized against the control condition of each donor to correct for donor variation. The basal release of unstimulated cartilage is 36% (p<0.05) when the stimulated (IL-1a, TNFα and OSM) control is set to 100%.
as §1, with “the culture medium to induce cartilage degradation. Test agents” for “the culture medium. Test agents”, “in Table 3.” for “in Table 1.”

[3] = system: bovine articular cartilage explants; assay: Collagen (CTX-II) release from cytokine-stimulated bovine cartilage explants (CTX-II ELISA); conditions: for highest ineffective concentration, Collagen Release: TNFa/IL-1a/OSM 10 ng/ml each, 3 week culture; for effect on collagen release (in words): Example 1, concentrations of Table 1; for CTX-II release: stimulated control 135
Protocol: as §1, §2
Collagen release was measured as CTX-II release per mg cartilage. Collagen was measured in the pooled medium using the CTXII ELISA assay (Pre-clinical Cartilaps®, Nordic Bioscience).
as §1, with “the culture medium to induce cartilage degradation. Test agents” for “the culture medium. Test agents”, “in Table 3.” for “in Table 1.”

[4] = system: bovine articular cartilage explants; assay: General MMP activity in culture medium of cytokine-stimulated bovine cartilage explants (fluorogenic substrate); conditions: stimulated control 23
Protocol: as §2
The MMP activity was measured as MMP activity per mg cartilage.
as §1, with “the culture medium to induce cartilage degradation. Test agents” for “the culture medium. Test agents”, “in Table 3.” for “in Table 1.”

C[C@@H]1C[C@H]2[C@@H]3CCC4=CC(=O)C=C[C@]4(C)[C@@]3(F)[C@@H](O)C[C@]2(C)[C@@]1(O)C(=O)CO [Dexamethasone]
highest ineffective concentration, PGE2 release [1]: <0.01 µM | highest ineffective concentration, Proteoglycan release [2]: <0.01 µM | highest ineffective concentration, Collagen Release [3]: <0.01 µM

CNC(=O)[C@H](Cc1c[nH]c2ccccc12)NC(=O)[C@@H](CC(=O)NO)CC(C)C [Galardin]
highest ineffective concentration, PGE2 release [1]: >10 µM | effect on proteoglycan release (in words) [2]: slightly inhibited | highest ineffective concentration, Proteoglycan release [2]: 1 to 10 µM | normalized GAG (proteoglycan) release ([2]; compound alone at 10 μM): 72% | effect on collagen release (in words) [3]: inhibited | highest ineffective concentration, Collagen Release [3]: <0.1 µM

C[C@H]1c2cccc(O)c2C(=O)C2=C(O)[C@]3(O)C(=O)C(C(N)=O)=C(O)[C@@H](N(C)C)[C@@H]3[C@@H](O)[C@@H]21 [Doxycycline]
highest ineffective concentration, PGE2 release [1]: 1 to 10 µM | normalized PGE2 release ([1]; compound alone at 10 μM): 111% | highest ineffective concentration, Proteoglycan release [2]: >100 µM | normalized GAG (proteoglycan) release ([2]; compound alone at 100 μM): 80% | MMP activity ([4]; compound alone at 10 μM): 14 RFU/sec per mg cartilage | highest ineffective concentration, Collagen Release [3]: 10 to 100 µM | CTX-II release ([3]; compound alone at 10 μM): 125 ng/mg cartilage

CNC(=O)[C@H](Cc1ccccc1)NC(=O)[C@H](CC(C)C)[C@H](CSc1cccs1)C(=O)NO [BB-94]
normalized GAG (proteoglycan) release ([2]; compound alone at 10 nM): 83% | normalized GAG (proteoglycan) release ([2]; compound alone at 100 nM): 80% | MMP activity ([4]; compound alone at 10 nM): 13 RFU/sec per mg cartilage | MMP activity ([4]; compound alone at 100 nM): 4 RFU/sec per mg cartilage | CTX-II release ([3]; compound alone at 10 nM): 137 ng/mg cartilage | CTX-II release ([3]; compound alone at 100 nM): 27 ng/mg cartilage

anakinra [Kineret ® (anakinra)]
effect on PGE2 release (in words) ([1]; Example 1, concentrations of Table 1): inhibited all outcome parameters | highest ineffective concentration, PGE2 release [1]: <0.1 µg/mL | effect on proteoglycan release (in words) [2]: inhibited all outcome parameters | highest ineffective concentration, Proteoglycan release [2]: <0.1 µg/mL | effect on collagen release (in words) [3]: inhibited all outcome parameters

Cc1ccc(-c2cc(C(F)(F)F)nn2-c2ccc(S(N)(=O)=O)cc2)cc1 [Celebrex ® (celecoxib), celecoxib]
highest ineffective concentration, PGE2 release [1]: <0.01 µM | highest ineffective concentration, Proteoglycan release [2]: 0.1 to 1 µM | highest ineffective concentration, Collagen Release [3]: >10 µM

Calcitonin
highest ineffective concentration, PGE2 release [1]: >0.01 µM | normalized PGE2 release ([1]; compound alone at 10 nM): 117% | highest ineffective concentration, Proteoglycan release [2]: >0.01 µM | normalized GAG (proteoglycan) release ([2]; compound alone at 10 nM): 87% | MMP activity ([4]; compound alone at 10 nM): 15 RFU/sec per mg cartilage | highest ineffective concentration, Collagen Release [3]: 0.0003 to 0.001 µM | CTX-II release ([3]; compound alone at 0.5 nM): 133 ng/mg cartilage
